Eight compounds from PubChem BioAssay (NCI) can be followed below.

Test systems include NCI-H226 lung; HL-60(TB) leukemia; CAKI-1 renal; HOP-62 NSCLC; HCT-15 colon; TK-10 renal; ACHN renal; SW-620 colon; SN12C renal; SR leukemia.
Assay in all cases: NCI tumour cell line growth inhibition, 48 h

Values joined by “and” are separate entries in the source; they are usually repeats but may differ in a detail not shown here. Equal values may be shown once.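 Where inhibition never reached the appropriate level, the endpoint shown equals the highest concentration tested. Otherwise, values were interpolated linearly from a five-concentration, 48-hour dose response in 96-well plates. GI50: concentration for 50% inhibition of growth. TGI: total growth inhibition.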 Bounds are passed on as bounds.

Regarding `CCN(CC)CCn1c2ccccc2c(=O)c2c(O)ccc(O)c21`, the TGI in the experiment on NCI-H226 lung is above 56.2 µM; in the experiment on HL-60(TB) leukemia, 46.8 µM; in the experiment on CAKI-1 renal, 61.5 µM; in the experiment with HOP-62 NSCLC it was 86.5 µM; with HCT-15 colon, above 58.5 µM; in the experiment with TK-10 renal it was 49.2 µM. Moreover, the TGI in the experiment on ACHN renal came to 57.8 µM; in the experiment with SW-620 colon, 31.5 µM; with SN12C renal, 45.6 µM; with SR leukemia, 26.2 µM.

For the compound `c1ccc2cc3[s+]snc3cc2c1`, the TGI in the experiment with NCI-H226 lung, in the experiment on HL-60(TB) leukemia, in the experiment with CAKI-1 renal, in the experiment on HOP-62 NSCLC, with HCT-15 colon and with TK-10 renal was above 100 µM throughout. Also, the TGI with ACHN renal, with SW-620 colon, in the experiment with SN12C renal and in the experiment with SR leukemia was above 100 µM throughout.

Turning to `CCN1C(=O)N(c2ccccc2)C2NC(=S)N(/N=C/C=C/c3ccccc3)C21` (centres undefined), the GI50 is 2790 nM with NCI-H226 lung; 227 nM with HL-60(TB) leukemia; 269 nM in the experiment on CAKI-1 renal; 400 nM with HOP-62 NSCLC; 293 nM with HCT-15 colon; 825 nM in the experiment on TK-10 renal. In addition, the GI50 in the experiment on ACHN renal is 763 nM; in the experiment with SW-620 colon it was 380 nM; in the experiment on SN12C renal it was 742 nM; in the experiment with SR leukemia, 114 nM. The TGI in the experiment with NCI-H226 lung is above 100 µM; in the experiment with HL-60(TB) leukemia it was 0.745 µM; in the experiment on CAKI-1 renal, above 100 µM; in the experiment with HOP-62 NSCLC it was above 100 µM; with HCT-15 colon, above 100 µM; in the experiment on TK-10 renal, above 100 µM. For the same compound, the TGI in the experiment on ACHN renal, with SW-620 colon, in the experiment on SN12C renal and with SR leukemia was above 100 µM throughout.

Consider `COc1cccc(OCCCN)c1-c1cc(Nc2cnc(C#N)cn2)n[nH]1`, for which the GI50 was 2230 nM in the experiment with NCI-H226 lung; 8.77 nM and 23.1 nM in the experiment on HL-60(TB) leukemia; 405 nM and 45.5 nM in the experiment with CAKI-1 renal; 13.6 nM and 30.3 nM in the experiment on HOP-62 NSCLC; 58.5 nM and 70 nM with HCT-15 colon; 6.5 nM with TK-10 renal. In addition, the GI50 in the experiment with ACHN renal was 3.32 nM; with SW-620 colon, 57.3 nM and 54 nM; with SN12C renal, 189 nM and 130 nM; with SR leukemia it was 3.2 nM. Moreover, the TGI in the experiment with NCI-H226 lung is 8.39 µM; in the experiment with HL-60(TB) leukemia it was 1.14 µM; in the experiment on CAKI-1 renal, 11.9 µM; in the experiment on HOP-62 NSCLC, 13 µM; in the experiment with HCT-15 colon, 14 µM; in the experiment on TK-10 renal it was 0.417 µM. Further, the TGI with ACHN renal is 0.0146 µM; in the experiment with SW-620 colon, 12 µM; in the experiment with SN12C renal, 10.8 µM; with SR leukemia, 1.25 µM.

For the compound `COc1ccc(-n2cc(-c3cc(OC)c(OC)c(OC)c3)nc2SCc2ccccc2)cc1OC`, the GI50 in the experiment on NCI-H226 lung is above 78700 nM; in the experiment with HL-60(TB) leukemia it was 48200 nM; with CAKI-1 renal it was above 96600 nM; with HOP-62 NSCLC, above 100000 nM; with HCT-15 colon, 33300 nM; in the experiment with TK-10 renal it was above 100000 nM. For the same compound, the GI50 in the experiment on ACHN renal is above 92900 nM; in the experiment on SW-620 colon it was above 100000 nM; with SN12C renal it was above 100000 nM; with SR leukemia it was 44100 nM. For the same compound, the TGI in the experiment with NCI-H226 lung, in the experiment on HL-60(TB) leukemia, with CAKI-1 renal, in the experiment on HOP-62 NSCLC, with HCT-15 colon and in the experiment with TK-10 renal was above 100 µM in each case. For the same compound, the TGI in the experiment on ACHN renal, in the experiment on SW-620 colon, with SN12C renal and in the experiment on SR leukemia was above 100 µM in each case.

With `CCCCCCCCCCC(C(O)c1ccccc1)N1CCCCC1` (centres undefined), the GI50 is 2910 nM with NCI-H226 lung; 1960 nM with HL-60(TB) leukemia; 1530 nM in the experiment on CAKI-1 renal; 1910 nM in the experiment with HOP-62 NSCLC; 1630 nM with HCT-15 colon; 2160 nM with TK-10 renal. For the same compound, the GI50 is 2190 nM with ACHN renal, 1700 nM in the experiment on SW-620 colon, 2550 nM with SN12C renal and 2130 nM in the experiment on SR leukemia. Also, the TGI with NCI-H226 lung was 12.4 µM; with HL-60(TB) leukemia, 4.25 µM; in the experiment on CAKI-1 renal, 3.06 µM; with HOP-62 NSCLC, 3.78 µM; with HCT-15 colon, 4.38 µM; in the experiment with TK-10 renal, 4.83 µM. Moreover, the TGI worked out at 4.95 µM in the experiment with ACHN renal, 3.21 µM with SW-620 colon, 10.4 µM in the experiment with SN12C renal and 5.34 µM with SR leukemia.

With `COC(=O)CCC1CCC(c2cc(F)ccc2F)(S(=O)(=O)c2ccc(Cl)cc2)CC1` (centres undefined), the GI50 is 86800 nM in the experiment on NCI-H226 lung; 45300 nM in the experiment with HL-60(TB) leukemia; 6000 nM in the experiment on CAKI-1 renal; above 100000 nM in the experiment on HOP-62 NSCLC; above 100000 nM with HCT-15 colon; above 100000 nM in the experiment on TK-10 renal. For the same compound, the GI50 in the experiment with ACHN renal, in the experiment on SW-620 colon, in the experiment on SN12C renal and with SR leukemia was above 100000 nM throughout. The TGI with NCI-H226 lung, in the experiment on HL-60(TB) leukemia, in the experiment with CAKI-1 renal, with HOP-62 NSCLC, with HCT-15 colon and in the experiment with TK-10 renal was above 100 µM throughout. For the same compound, the TGI in the experiment with ACHN renal, with SW-620 colon, in the experiment on SN12C renal and in the experiment with SR leukemia was above 100 µM throughout.

`COc1ccc(/C=C(\C#N)n2nnc3ccccc32)cc1`: the GI50 was 1110 nM in the experiment with NCI-H226 lung; 126 nM in the experiment on HL-60(TB) leukemia; 63.8 nM in the experiment with CAKI-1 renal; 486 nM in the experiment on HOP-62 NSCLC; 68.2 nM in the experiment with HCT-15 colon; 2220 nM with TK-10 renal. Also, the GI50 in the experiment with ACHN renal was 434 nM; with SW-620 colon, 60.3 nM; in the experiment on SN12C renal it was 832 nM; in the experiment on SR leukemia it was 55.5 nM. The TGI in the experiment on NCI-H226 lung is 21.2 µM; in the experiment on CAKI-1 renal it was above 84.6 µM; in the experiment on HOP-62 NSCLC it was 25.8 µM; in the experiment with HCT-15 colon, above 100 µM; with TK-10 renal, 58.6 µM; with ACHN renal it was 17.2 µM. The TGI in the experiment with SW-620 colon was above 100 µM; with SN12C renal it was 26.6 µM; in the experiment on SR leukemia, above 39.6 µM.
